How the values were obtained:
[1] = Entrapment and RNA concentration of RSV-F replicon liposomes (Quant-iT RiboGreen); type: physicochemical
Description: RNA was encapsulated in liposomes made essentially by the method of Geall et al. (2012) PNAS vol. 109 (36): 14604-14609, Jeffs et al. (2005) Pharmaceutical Research 22 (3):362-372 and Maurer et al. (2001) Biophysical Journal, 80: 2310-2326 The liposomes were made of 10% DSPC (zwitterionic), 40% cationic lipid, 48% cholesterol and 2% PEG-conjugated DMG (2 kDa PEG). These proportions refer to the % moles in the total liposome.
Briefly, lipids were dissolved in ethanol (2 ml), a RNA replicon was dissolved in buffer (2 ml, 100 mM sodium citrate, pH 6) and these were mixed with 2 ml of buffer followed by 1 hour of equilibration. The mixture was then dialized overnight against 1×PBS. The resulting product contained liposomes, with ˜70-95% encapsulation efficiency. For in vitro and in vivo experiments formulations were diluted to the required RNA concentration with 1×PBS.
The percentage of encapsulated RNA and RNA concentration were determined by Quant-iT RiboGreen RNA reagent kit (Invitrogen), following manufacturer's instructions. The ribosomal RNA standard provided in the kit was used to generate a standard curve. Liposomes were diluted 10× or 100× in 1×TE buffer (from kit) before addition of the dye. Separately, liposomes were diluted 10× or 100× in 1×TE buffer containing 0.5% Triton X before addition of the dye (to disrupt the liposomes and thus to assay total RNA). Thereafter an equal amount of dye was added to each solution and then ˜180 μL of each solution after dye addition was loaded in duplicate into a 96 well tissue culture plate. The fluorescence (Ex 485 nm, Em 528 nm) was read on a microplate reader. All liposome formulations were dosed in vivo based on the encapsulated amount of RNA.
(§1) A self-replicating replicon encoding RSV F protein was administered to BALB/c mice, 8 animals per group, by bilateral intramuscular vaccinations (50 μL per leg) on days 0 and 21 with the replicon (0.1 and 1 ng) formulated as liposomes with the lipids described below. All liposomes tested were composed of 40% cationic lipid, 10% DSPC, 48% cholesterol and 2% PEG-DMG with similar amounts of RNA. The liposomes were all prepared using the same technique as described above.
(§2) % entrapment (% E), Concentration of RNA (Conc), particle size measured by DLS, and polydispersity reported by DLS of LNPs prepared with different cationic lipids

[2] = Particle size and polydispersity by DLS of RSV-F replicon LNPs; type: physicochemical
Description: as §1, §2

[3] = Percent encapsulation of mRNA in lipid nanoparticles (Quant-iT Ribogreen); type: physicochemical; conditions: Table 2; leptin mRNA in LNP with the cationic lipid
Method in brief: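 LNPs made by T-junction mixing of ethanolic lipids (cationic lipid:DSPC:cholesterol:PEG lipid 40:10:38:2, N:P 4:1) with mRNA in citrate pH 5.8-6.0, then dialysed against PBS overnight at 4 °C. RiboGreen fluorescence (ex 480/em 520 nm) measured in TE ± 0.75% Triton X-100; encapsulation = (total − free)/total.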

RSV F protein = assay: RSV immunogenicity: IgG titers after two IM immunizations with vA375 RNA expressing RSV-F in LNPs; type: in vivo, BALB/c mice; conditions: IM days 0 and 21, two weeks after two immunizations
human leptin [4] = assay: Human leptin in mouse plasma (ELISA) after IV tail vein injection of encapsulated leptin mRNA; type: in vivo; conditions: hLeptin, 0.2 mpk, ob/ob
Description: Human leptin in mouse plasma was measured by ELISA. Antibodies purchased from the R&D Systems duoset (Cat #DY398E, part #840279 for capture antibody and part #840280 for detection antibody) were reconstituted using PBS and titered, again using PBS. The capture antibody was coated at 4 ug/ml in 30 ul/well on a white Nunc® Maxisorp 384 well plate (Cat #460372). After an overnight incubation at room temperature the capture antibody was aspirated and the plate blocked for 2 hours at room temperature with 90 ul/well of KPL milk blocker (Cat #50-82-00). Once the incubation was completed the plate was aspirated and recombinant standards and samples were added to the plate at 30 ul/well for 2 hours at 37° C. while shaking at 600 rpm. Sample/standard dilutions were made using casein sample diluent. Washing/aspiration 3 times with 100 ul/well followed, using Teknova plate wash solution (Cat #P1192). Next, detection antibody was diluted using casein detection antibody diluent to 12.5 ng/ml and added at 30 ul/well for 2 hours room temperature. After this incubation, the plate was washed again and a solution of poly-streptavidin-HRP (Cat #21140) at a 1:1250 dilution in HRP dilution buffer was added to each well (30 ul/well) and incubated for 30 minutes room temperature. A final wash/aspiration removed the HRP solution and a chemiluminescent substrate was added at 30 ul/well (Cat #1859678 & 1859679). The plate was quickly read using a SpectramaxM5 plate reader with a 50 ms integration time. The dynamic range of the ELISA is from 100-2,000 […] (6.25-125 pM) of human leptin. The assay is applicable to plasma from mice, rats and cynomolgus monkeys.
Before the tail vein injection, mouse body weights were recorded and diet weighted, with mice grouped according to their body weights. Mice were prepared by warming them under a heating lamp for ˜2 minutes, with the mice about 12 inches from heat lamp. […]
On day 0, animals were weighed and sorted according to average body weight. Mice were dosed, and food intake (FI) was recorded, on each of days 1-7 and days 9, 11, and 16.

Factor VII = assay: Mouse Factor VII dosing and plasma Factor VII activity assay (FVII siRNA LNP, IV); type: in vivo; conditions: 0.03 mpk, XXX mice
Description: Female CD-1 mice were received from Harlan Labs and maintained on standard lab chow and water ad libitum. The animals weighed approximately 25 gr at time of dosing. Formulated Factor VII siRNA was administered as a single dose intravenously via the lateral tail vein. Approximately 48 hours after injection, the mice were euthanized by CO2 inhalation followed by exsanguination through the vena cava.
Plasma collected from injected mice was assayed for Factor VII enzyme activity using the Biophen FVII kit from Hyphen Biomedical (catalog number 221304). An assay standard curve was prepared using pooled plasma aliquots from the vehicle control animals. All samples were diluted to fall within the linear range of the standard curve and Factor VII activity relative to control plasma was reported.
Lipid nanoparticles comprising lipid compounds of formula (I) and the FVII siRNA duplex sequence listed above were tested in the Factor VII Activity Assay. The results of this assay are given in Table 34 below as a percent knock down of plasma Factor VII enzyme activity at a dose of 0.3 mg/kg and 0.03 mg/kg.

human leptin [5] = assay: Human leptin in mouse plasma (ELISA) after subcutaneous injection of encapsulated leptin mRNA; type: in vivo; conditions: hLeptin, 0.2 mpk, ob/ob
[6] = RSV-F replicon LNP prepared for 1st IM
[7] = RSV-F replicon LNP prepared for 2nd IM

Row | Compound | % E (% entrapment) [1, 6] [%] | % E (% entrapment) [1, 7] [%] | PDI [2, 6] | Size [2, 6] [nm] | PDI [2, 7] | Size [2, 7] [nm] | % encapsulation mRNA Leptin [3] [%] | Immunogenicity (2wp2, log10 IgG titers) (RSV F protein; 0.1 ng vA375 RNA) [log10 IgG titers] | Immunogenicity (2wp2, log10 IgG titers) (RSV F protein; 1 ng vA375 RNA) [log10 IgG titers] | Expression of protein following IV injection of encapsulated mRNA (human leptin [4]) [ng/mL] | FVII knock-down following IV injection of encapsulated siRNA (Factor VII) [%/0.03] | Expression of protein following SC injection of encapsulated mRNA (human leptin [5]) [ng/mL]
1 | CCCCC/C=C\C/C=C\CCCCCCCCC(CCCOC(=O)CCC(=O)OC(CCCCCCCC)CCCCCCCC)OC(=O)OCCCN(C)C (stereo not drawn) [Example 58, (13Z,16Z)-4-(((3-(dimethylamino)propoxy)carbonyl)oxy)docosa-13,16-dien-1-yl heptadecan-9-yl succinate] | 87.48 | 87.03 | 0.111 | 139.4 | 0.075 | 137.1 | 90.2 | 4.19 | 4.26 | – | – | –
2 | CCCCCCCCCCCCC(CCC(=O)OC(COC(=O)CCCCCCCCC)COC(=O)CCCCCCCCC)OC(=O)OCCCN(C)CC (stereo not drawn) [Example 91, 2-((4-(((3-(ethyl(methyl)amino)propoxy)carbonyl)oxy)hexadecanoyl)oxy)propane-1,3-diyl bis(decanoate)] | – | – | – | – | – | – | 94.4 | – | – | 33.6 | 97 | 3.5
3 | CCCCC/C=C\C/C=C\CCCCCCCC(=O)OCC(COC(=O)CCCCCCC/C=C\C/C=C\CCCCC)OC(=O)C(CCCCCCCCCCCC)OC(=O)OCCCN(C)C (stereo not drawn) [Example 98, (9Z,9′Z,12Z,12′Z)-2-((2-(((3-(dimethylamino)propoxy)carbonyl)oxy)tetradecanoyl)oxy)propane-1,3-diyl bis(octadeca-9,12-dienoate)] | 85.91 | 76.36 | 0.07 | 139.4 | 0.065 | 130.9 | 73.4 | 4.28 | 4.64 | – | – | –
4 | CCCCC/C=C\C/C=C\CCCCCCCC(=O)OCC(COC(=O)CCCCCCC/C=C\C/C=C\CCCCC)COC(=O)CCC(CCCCCCCCCCCC)OC(=O)OCCCN(C)C (stereo not drawn) [Example 105, (9Z,9′Z,12Z,12′Z)-2-(9-dodecyl-2-methyl-7,12-dioxo-6,8,13-trioxa-2-azatetradecan-14-yl)propane-1,3-diyl bis(octadeca-9,12-dienoate)] | 85.22 | 69.54 | 0.107 | 137.2 | 0.123 | 135.7 | – | 4.21 | 4.53 | – | – | –
5 | CCCCCCCCCCCCC(CCOC(=O)CCCCC(OCC(CCC)CCC)OCC(CCC)CCC)OC(=O)OCCCN(C)C (stereo not drawn) [Example 115, 3-(((3-(dimethylamino)propoxy)carbonyl)oxy)pentadecyl 6,6-bis((2-propylpentyl)oxy)hexanoate] | 95.76 | 95.78 | 0.075 | 141.3 | 0.065 | 130.9 | 97.8 | 1.91 | 3.31 | – | – | –
6 | CCCCCCCCCCCCC(CCCOC(=O)CCCCC(COC(=O)CCCCCCC)COC(=O)CCCCCCC)OC(=O)C1(C)CCN(C)CC1 (stereo not drawn) [Example 131, 2-(5-((4-((1,4-dimethylpiperidine-4-carbonyl)oxy)hexadecyl)oxy)-5-oxopentyl)propane-1,3-diyl dioctanoate] | 85.31 | 80.31 | 0.119 | 138.3 | 0.07 | 143.5 | 96.4 | 4.43 | 5.22 | – | – | –

Source: US11013696B2, “Lipids and lipid compositions for the delivery of active agents” (Novartis AG, priority 2013, dated 2021)
